According to ChEMBL document CHEMBL1201862, “PubChem BioAssay data set” (2004):
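Step 1: Grow cells in 96-well plates. Step 2: Expose to compound for 48 hours at 5 concentrations. Step 3: Interpolate endpoints linearly; if unreached, use highest concentration. Here, GI50 denotes the concentration required for 50% inhibition of growth.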 Active and inactive are the calls of the source. No stated cut-off is given here; in the data, active = GI50 up to about 1.1 µM and inactive = higher.

Tests used:
Experiment in all cases: inhibition of tumour cell growth, NCI panel, 48 h
A498 = system: A498
HCT-15 = system: HCT-15
IGROV-1 = system: IGROV-1
K562 = system: K562
LOX IMVI = system: LOX IMVI
MCF7 = system: MCF7
NCI-H23 = system: NCI-H23
NCI-H522 = system: NCI-H522
OVCAR-3 = system: OVCAR-3
OVCAR-4 = system: OVCAR-4
OVCAR-8 = system: OVCAR-8
PC-3 = system: PC-3
SF-539 = system: SF-539
SK-MEL-28 = system: SK-MEL-28
SK-OV-3 = system: SK-OV-3
SW-620 = system: SW-620
UO-31 = system: UO-31
HCC 2998 = system: HCC 2998
NCI-H460 = system: NCI-H460
TK-10 = system: TK-10

| SMILES | GI50 (A498) | GI50 (HCT-15) | GI50 (IGROV-1) | GI50 (K562) | GI50 (LOX IMVI) | GI50 (MCF7) | GI50 (NCI-H23) | GI50 (NCI-H522) | GI50 (OVCAR-3) | GI50 (OVCAR-4) | GI50 (OVCAR-8) | GI50 (PC-3) | GI50 (SF-539) | GI50 (SK-MEL-28) | GI50 (SK-OV-3) | GI50 (SW-620) | GI50 (UO-31) | GI50 (HCC 2998) | GI50 (NCI-H460) | GI50 (TK-10) |
| --- | --- | --- | --- | --- | --- | --- | --- | --- | --- | --- | --- | --- | --- | --- | --- | --- | --- | --- | --- | --- |
| COc1cc(S(=O)(=O)Nc2ccc(-c3csc(/N=C\c4ccccc4O)n3)cc2)ccc1Cl | > 100 µM (inactive) | 51.4 µM | 56 µM (inactive) | 28.2 µM (inactive) | 35.5 µM (inactive) | 22.6 µM (inactive) | 52.7 µM (inactive) | 37.8 µM (inactive) | 28.5 µM (inactive) | 44.9 µM (inactive) | > 100 µM (inactive) | 39.4 µM (inactive) | 55.7 µM (inactive) | 39.3 µM (inactive) | > 100 µM (inactive) | 37.8 µM (inactive) | 31 µM (inactive) |  |  |  |
| COC(=O)[C@]12CSC[C@H]1C[C@H](c1ccc(N(C)C)cc1)N2 | > 28.1 µM (inactive) | > 100 µM | > 100 µM (inactive) | > 100 µM (inactive) | > 100 µM (inactive) | > 100 µM (inactive) | > 100 µM (inactive) |  | > 100 µM (inactive) | > 100 µM (inactive) | > 100 µM (inactive) | > 100 µM (inactive) | > 100 µM (inactive) | > 100 µM (inactive) | > 100 µM (inactive) | > 100 µM (inactive) | > 100 µM (inactive) | > 100 µM (inactive) | > 100 µM (inactive) | > 100 µM (inactive) |
| CCCCCCCCOP(=O)(O)OP(=O)(O)OCC1OC(n2ccc(N)nc2=O)C(O)C1O (stereo not drawn) | > 100 µM (inactive) | > 100 µM | > 100 µM (inactive) | > 100 µM (inactive) | > 100 µM (inactive) | > 100 µM (inactive) | > 100 µM (inactive) |  | > 100 µM (inactive) | > 100 µM (inactive) | > 100 µM (inactive) | > 100 µM (inactive) | > 100 µM (inactive) | > 100 µM (inactive) | > 100 µM (inactive) | > 100 µM (inactive) | > 100 µM (inactive) | > 100 µM (inactive) | > 100 µM (inactive) | > 100 µM (inactive) |
| O=c1[nH]c2cccc([N+](=O)[O-])c2c(=O)n1-c1ccc(Cl)cc1 | 13.9 µM (inactive) | 12.1 µM | 16.7 µM (inactive) | 1.48 µM (inactive) | 16.1 µM (inactive) | 9.91 µM (inactive) | 20.3 µM (inactive) |  | 10.8 µM (inactive) | 5.07 µM (inactive) | 11.8 µM (inactive) | 16.6 µM (inactive) | 12.3 µM (inactive) | 13.4 µM (inactive) | 14.3 µM (inactive) | 10.4 µM (inactive) |  | 14 µM (inactive) | 4.4 µM (inactive) | 14.9 µM (inactive) |
| O=C(O)CCC(=O)c1ccc2sc3ccccc3c2c1 | 27.9 µM (inactive) | > 100 µM | > 100 µM (inactive) | > 100 µM (inactive) | > 100 µM (inactive) | > 100 µM (inactive) | > 100 µM (inactive) | > 100 µM (inactive) | > 100 µM (inactive) | > 100 µM (inactive) | > 100 µM (inactive) | > 100 µM (inactive) | > 100 µM (inactive) | > 100 µM (inactive) | > 100 µM (inactive) | > 100 µM (inactive) | > 100 µM (inactive) |  | > 100 µM (inactive) | 91.6 µM (inactive) |
| Cc1c(C)c2ccc(O)cc2[nH]c1=O | > 100 µM (inactive) | > 100 µM | > 100 µM (inactive) | > 100 µM (inactive) | > 100 µM (inactive) | > 100 µM (inactive) | > 100 µM (inactive) |  | > 100 µM (inactive) | > 100 µM (inactive) | > 100 µM (inactive) | > 100 µM (inactive) | > 100 µM (inactive) | > 100 µM (inactive) |  | > 100 µM (inactive) | > 100 µM (inactive) | > 100 µM (inactive) | > 100 µM (inactive) |  |
| O=C(CSc1nc2ccc(I)cc2c(=O)n1Cc1ccccc1)Nc1ccc(Br)cc1 | 22.5 µM (inactive) | 36 µM | 29.2 µM (inactive) | 24.7 µM (inactive) | > 100 µM (inactive) | > 100 µM (inactive) | > 100 µM (inactive) | 46.7 µM (inactive) | 63 µM (inactive) | 34.7 µM (inactive) | 13.4 µM (inactive) | 17.5 µM (inactive) | 2.32 µM (inactive) | 49.4 µM (inactive) | > 100 µM (inactive) | 97.5 µM (inactive) | 0.114 µM (active) |  |  |  |
| CC1(C)Oc2ccc(Cl)cc2C12CC2 | 15.1 µM (inactive) | 17.1 µM | 14.7 µM (inactive) | 15.5 µM (inactive) | 16.6 µM (inactive) | 16.9 µM (inactive) | 20.1 µM (inactive) |  | 13.8 µM (inactive) | 13.8 µM (inactive) | 14.7 µM (inactive) | 13.9 µM (inactive) | 31.5 µM (inactive) | 17.9 µM (inactive) | 21.7 µM (inactive) | 11.8 µM (inactive) | 16.9 µM (inactive) | 15.8 µM (inactive) | 17.8 µM (inactive) | 18.4 µM (inactive) |
| CCN1C=C/C(=C\C=C\c2cc[n+](CC)c3ccccc23)c2ccccc21 | 3.78 µM (inactive) | 16.4 µM | 3.59 µM (inactive) |  |  | 6.28 µM (inactive) | 2.87 µM (inactive) | 7.43 µM (inactive) | 2.49 µM (inactive) | 4.46 µM (inactive) | 4.28 µM (inactive) | 4.49 µM (inactive) | 3.39 µM (inactive) | 8.99 µM (inactive) | 4.66 µM (inactive) | 4.62 µM (inactive) | 15.2 µM (inactive) | 7.24 µM (inactive) | 3.4 µM (inactive) | 10.6 µM (inactive) |
| CC1(c2cccs2)CC(c2cccs2)=C(C#N)C(=C(C#N)C#N)N1 (stereo not drawn) | 18.7 µM (inactive) | 16.4 µM | 17.7 µM (inactive) | 23 µM (inactive) | 16.1 µM (inactive) | 18.5 µM (inactive) | 19.4 µM (inactive) |  | 16.3 µM (inactive) | 16.4 µM (inactive) | 17.3 µM (inactive) | 15.4 µM (inactive) | 25.2 µM (inactive) | 20.4 µM (inactive) | 21.6 µM (inactive) | 11.4 µM (inactive) | 18.9 µM (inactive) | 15.9 µM (inactive) | 20.2 µM (inactive) | 21 µM (inactive) |
| CC(C)Oc1cc(O)c2c(c1)OCC=C2CCC(=O)O | 21.4 µM (inactive) | 23.2 µM | 35.7 µM (inactive) | 28.4 µM (inactive) | 33.1 µM (inactive) | 13.9 µM (inactive) | 37.2 µM (inactive) | 21.2 µM (inactive) | 41 µM (inactive) | 39.3 µM (inactive) | 36.1 µM (inactive) | 54.6 µM (inactive) |  | 36 µM (inactive) | 49 µM (inactive) | 27.8 µM (inactive) | 24.1 µM (inactive) |  | 33 µM (inactive) | 20.3 µM (inactive) |
| CC(C)C1=CC(=O)C(C)(C2C(O)CC3(C)C4CC=C5C(CCC(OC6OC(CO)C(O)C(O)C6OC6OC(C)C(O)C(O)C6O)C5(C)C)C4(C)C(=O)CC23C)O1 (stereo not drawn) | > 100 µM (inactive) | > 100 µM | > 100 µM (inactive) | > 100 µM (inactive) |  | > 100 µM (inactive) | > 100 µM (inactive) | > 100 µM (inactive) | > 100 µM (inactive) | > 100 µM (inactive) | > 100 µM (inactive) | > 100 µM (inactive) | > 100 µM (inactive) | > 100 µM (inactive) | > 100 µM (inactive) | > 100 µM (inactive) | > 100 µM (inactive) | > 100 µM (inactive) | > 100 µM (inactive) |  |
| O=C(O)CCC(N/N=N/c1ccc(-c2nc3ccccc3[nH]2)cc1)C(=O)O (stereo not drawn) | > 100 µM (inactive) | 34 µM | 20.8 µM (inactive) | 30.1 µM (inactive) | 43.1 µM (inactive) | 23.1 µM (inactive) | 71.3 µM (inactive) | > 100 µM (inactive) | 30.3 µM (inactive) | 66.5 µM (inactive) | 34.8 µM (inactive) | 81.8 µM (inactive) | > 100 µM (inactive) | > 100 µM (inactive) | 59.7 µM (inactive) | > 100 µM (inactive) | 13.6 µM (inactive) |  | 31.8 µM (inactive) | > 100 µM (inactive) |
| CC(C)(C)n1[nH]c(=O)n(C(C)(C)C)c1=O | > 100 µM (inactive) | > 100 µM |  | > 100 µM (inactive) | > 100 µM (inactive) | > 100 µM (inactive) | > 100 µM (inactive) |  | > 100 µM (inactive) | > 100 µM (inactive) |  | > 100 µM (inactive) | > 100 µM (inactive) | > 100 µM (inactive) | > 100 µM (inactive) | > 100 µM (inactive) | > 100 µM (inactive) | > 100 µM (inactive) | > 100 µM (inactive) | > 100 µM (inactive) |
| O=C1Nc2ccccc2NC1C1OC(c2ccccc2)=CC1=O (stereo not drawn) | > 100 µM (inactive) | > 100 µM | > 100 µM (inactive) | > 100 µM (inactive) | > 100 µM (inactive) | > 100 µM (inactive) | > 100 µM (inactive) |  | > 100 µM (inactive) | > 100 µM (inactive) | > 100 µM (inactive) | > 100 µM (inactive) | > 100 µM (inactive) | > 100 µM (inactive) | > 100 µM (inactive) | > 100 µM (inactive) | > 100 µM (inactive) | > 100 µM (inactive) | > 100 µM (inactive) | > 100 µM (inactive) |
